Results taken from patent US20150104868A1, “Methods of Maintaining and Improving Biological Cell Function and Activity” (GARGILL INCORPORATED, priority 2012, published 2015).

Experiments:
[1] = test system: Mouse intestine (entero-endocrine) STC-1 cells; details: STC-1 cells, 10% w/v, 2 hours at 37° C.
Description: Appropriate blanks, positive controls, and standards were also included.
The lactate dehydrogenase (LDH) leakage from cells was analyzed in the supernatants as a marker for cytotoxic cell death.

[2] = test system: Human 1.1E7 beta cells; test: 1.1E7 beta cell viability (trypan blue, Countess); assay type: cell-based; details: 10, 30, 45 mM glucose, with or without 5 mM ERT
Description: Cell culture: Human 1.1E7 beta cells were cultured in RPMI 1640 medium containing 10% fetal calf serum, 2 mM L-Glutamine and 1% penicillin/streptomycin. Cells were maintained at 37° C. in a 5% CO2 atmosphere.
Viability: Cells were seeded in a 24 well plate. After overnight attaching, the medium was removed and cells were washed with HBSS. […] After 1 hour incubation a vehicle or glucose solution was added to a final concentration of 10, 30 or 45 mM in the wells. Subsequently, cells were incubated for 24 hours, 48 hours, 6 days, and 7 days. After incubation, all cell material including medium and HBSS was collected and centrifuged (5 minutes, 500×g). Supernatant was removed and cells were resuspended in 100 μl HBSS. Cell suspensions were diluted 1:1 in 0.4% trypan blue dye and loaded in a Countess Chamber. Cells were counted using the Invitrogen Countess® automated cell counter (Life Technologies Europe BV, Bleiswijk, the Netherlands).

[3] = Human study in patients with Type 2 diabetes mellitus (blood glucose, insulin, C-peptide); assay type: in vivo; details: Type 2 diabetes patients, 12 g three times daily 28 days; before vs 2 hrs after 12 g intake
Description: A human study was conducted in patients with Type 2 diabetes mellitus. Patients were enrolled who were otherwise healthy patients with Type 2 diabetes mellitus as defined by fasting blood glucose >125 mg/dl or with ongoing treatment for Type 2 diabetes mellitus with the exception of insulin. […] Two hours after, blood drawings were taken again. […] After testing each variable for normality, a paired t-test was performed to determine statistical significance. For variables with a non-normal distribution, a Wilcoxon signed rank test was used. All analyses were performed using SPSS (IBM, version 19). Compliance was determined based on a count of empty sachets returned by study participants. Twenty-four subjects were enrolled and none withdrew from the study.

OC[C@@H](O)[C@@H](O)CO [ERT, meso-1,2,3,4-tetrahydroxybutane]
cell death (leakage of lactate dehydrogenase) [1]: cells could tolerate higher concentrations of ERT than glucose and other sugars tested
viability of 1.1E7 cells ([2]; 6 and 7 days): entirely prevented this decrease in beta cell viability
viability of 1.1E7 cells ([2]; 24 and 48 hours): did not have any impact on this maintained viability
blood C-peptide levels [3]: increase in blood C-peptide levels
blood glucose levels [3]: borderline significant decrease in blood glucose levels
blood insulin levels [3]: non-significant increase in insulin levels
